The values that follow come from patent US11970474B2, “Substituted benzodiazoles and use thereof in therapy” (THOMAS HELLEDAYS STIFTELSE FÖR MEDICINSK FORSKNING, priority 2018, dated 2024).

In one assay the target is OGG1 (Homo sapiens (Human), UniProt O15527). Nature of the assay: In vitro OGG1 activity assay. The class given is biochemical. The following applies: 800 pM OGG1 enzyme, 2 nM human APEX1, 10 nM 8-oxoA:C substrate. Summed up: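 Fluorescence-release assay on a duplex oligonucleotide carrying an OGG1 substrate base beside a fluorophore, quenched from the complementary strand. Excess APEX1 cleaves the abasic site left by base excision, melting the duplex and unquenching the fluorophore. Compounds in DMSO were dispensed before enzyme and substrate, and fluorescein signal was read.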

The subject of the next assay is HT-29. Nature of the assay: Cell viability assay (resazurin). The assay is classed as cell-based. The following applies: Homo sapiens, 120 h, Cancer, Colorectal Adenocarcinoma, five day incubation. Here is the method:
(§1) A dilution series of compound or vehicle are transferred to 96-well plates. Cells are seeded into the plate (500-10,000 cells/well) in suitable media and incubated for five days in 5% CO2 at 37° C. Thereafter, resazurin (diluted in suitable medium or PBS) are added to a final concentration 10 μg/ml resazurin at 37° C. for 2-4 hours before measuring the fluorescence (Ex544/Em590), essentially as described (Riss, Terry L. et al., “Cell Viability Assays.” In Assay Guidance Manual, ed. G. Sitta Sittampalam, et al. Bethesda (Md.): Eli Lilly & Company and the National Center for Advancing Translational Sciences (2004) http://www.ncbi.nlm.nih.gov/books/NBK144065/).
(§2) The compounds to be tested are nano-dispensed in duplicate in 11 concentrations, directly in 384-well cell plates, with a final DMSO concentration<1%. Cells are seeded in cell plates, pre-dispensed with compounds (200-2500 cells/well in 50 μl). After three or five days culture in 5% CO2, 37° C., resazurin diluted in PBS is added, 10 μl/well, to a final concentration of 10 μg/ml and cells are incubated 2-4 hours before measuring fluorescence (Ex544/Em590), as described (ibid.). Results obtained for selected example compounds described herein on cancer- and non-transformed cell lines are provided in the table below (Table 3) and summarized in FIG. 1. Where indicated, combination indexes was measured with CompuSyn software (www.compusyn.com) by the method of Chou-Talalay (Chou, Ting-Chao., Cancer Research, 70(2), 440-46 (2010)).
On the technique in general: The colour change of resazurin is a common sign of viable cells or microbes.

The test system of the next assay is KG1a. As to the kind of experiment: Cell viability assay (resazurin). The class given is cell-based. The following applies: Homo sapiens, KG-1a, 120 h, Cancer, Acute Myelogenous Leukemia, five day incubation. Here is the method: as §1, §2
In a further assay the test system is Hec59 + Chr2. As to the kind of experiment: Cell viability assay (resazurin). The assay is classed as cell-based. The following applies: 120 h, Cancer, endometrioid adenocarcinoma, five day incubation. Here is the method:
as §1, §2

Another assay deals with Hec59. As to the kind of experiment: Cell viability assay (resazurin). The following applies: 120 h, Cancer, endometrioid adenocarcinoma, five day incubation. The assay is classed as cell-based. As to the method: as §1, §2
In another assay the test system is K562. As to the kind of experiment: Cell viability assay (resazurin). The following applies: Homo sapiens, 120 h, Cancer, Chronic Myelogenous Leukemia, five day incubation. The class given is cell-based. As to the method: as §1, §2
In another assay the test system is NB-4. As to the kind of experiment: Cell viability assay (resazurin). The class given is cell-based. The following applies: Homo sapiens, 120 h, Cancer, acute promyelocytic leukemia, five day incubation. Here is the method:
as §1, §2

Another assay relates to SW1271. As to the kind of experiment: Cell viability assay (resazurin). The following applies: 120 h, Cancer, Small Cell Lung Carcinoma, five day incubation. The class given is cell-based. As to the method:
as §1, §2

The test system of the next assay is THP1. As to the kind of experiment: Cell viability assay (resazurin). The assay is classed as cell-based. The following applies: Homo sapiens, THP-1, 120 h, Cancer, Acute Monocytic Leukemia, five day incubation. Here is the method: as §1, §2
Another assay relates to ACHN. As to the kind of experiment: Colony formation survival assay. The assay is classed as cell-based. The following applies: cancer cell line ACHN; 7-11 days. Here is the method: (§3) Example compounds or vehicle are transferred to 6-well plates. Cell lines to be tested are seeded at a density of 200-500 cells/well in suitable media and allowed to grow for 7-11 days in at 5% CO2, 37° C. The medium is removed and replaced with 4% w/v methylene blue in methanol. Following extensive washes in tap water and air drying, […] with more than 50 […] are counted, as described in Franken, Nicolaas A. P., et al., Nature Protocols, 1(5), 2315-19 (2006).

For another assay, the system named is H460. As to the kind of experiment: Colony formation survival assay. The class given is cell-based. The following applies: cancer cell line H460; 7-11 days. As to the method:
as §3

The subject of the next assay is MLE-12 cells. As to the kind of experiment: Pro-inflammatory gene regulation induced by TNFα. The class given is cell-based, mouse. The following applies: 20 ng/ml TNFα, 5 μM compound. As to the method: MLE-12 cells are maintained in suitable medium and treated with vehicle or 5 μM experimental compound for 48 h before stimulation with 20 ng/ml TNFα for 30 minutes. RNA is extracted and reverse-transcribed, followed by quantitative PCR evaluation of a panel of pro-inflammatory regulators (SABiosciences) essentially as described in Ba, Xueqing, et al., The Journal of Immunology, 192(5), 2384-94 (2014).

A further assay deals with BALB/c mice. Nature of the assay: Recruitment of neutrophils to mouse airways. The class given is in vivo. The following applies: 25 mg/kg intraperitoneally; intranasal TNFα or lipopolysaccharide; lungs lavaged after 16 h. As to the method: Six- to 8-wk-old BALB/c mice (˜20 g; Harlan Sprague Dawley, San Diego, CA) were injected 25 mg/kg intraperitoneally 3 h before and at the time of intranasal TNF-α challenge essentially as described in Ba, Xueqing, et al., The Journal of Immunology, 192(5), 2384-94 (2014). To evaluate inflammation, bronchoalveolar lavage fluids (BALF) were collected 16 h after challenge, processed, cytospin slides were stained with Wright-Giemsa, and the number of neutrophils was counted. All experiments were performed according to the National Institutes of Health Guidelines for the Care and Use of Laboratory Animals.

Sequence of OGG1 (O15527 whole entry): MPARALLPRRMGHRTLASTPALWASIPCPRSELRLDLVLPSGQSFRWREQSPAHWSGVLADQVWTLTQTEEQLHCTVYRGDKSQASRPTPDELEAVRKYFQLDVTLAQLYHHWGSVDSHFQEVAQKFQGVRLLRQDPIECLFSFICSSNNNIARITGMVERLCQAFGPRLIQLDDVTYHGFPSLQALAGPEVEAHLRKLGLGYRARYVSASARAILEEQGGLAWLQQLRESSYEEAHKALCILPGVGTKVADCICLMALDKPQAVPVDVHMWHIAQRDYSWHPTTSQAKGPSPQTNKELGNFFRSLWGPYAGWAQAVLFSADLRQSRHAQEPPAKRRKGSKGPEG

Usually IC50 stands for the point on the concentration scale where inhibition reaches its midpoint. Low readings indicate higher potency, high ones lower potency. As usually defined, the EC50 is the concentration needed to bring the measured effect to its halfway point. On OGG1, `Cc1cc(NC(=O)N2CCC(n3c(=O)[nH]c4c(Br)cccc43)CC2)ccc1I` [Example 50, 4-(4-Bromo-2-oxo-2,3-dihydro-1H-1,3-benzodiazol-1-yl)-N-(4-iodo-3-methylphenyl)piperidine-1-carboxamide] gave an IC50 of 0.149 µM. Moreover, the EC50 with HT-29 stood at 22 µM; in the assay on KG1a it was 19 µM.
Take `O=C(Nc1ccc(Cl)c(Cl)c1)N1CCC(n2c(=O)[nH]c3c(-c4ccc(CO)nc4)cccc32)CC1` [Example 28, N-(3,4-dichlorophenyl)-4-{4-[6-(hydroxymethyl)pyridin-3-yl]-2-oxo-2,3-dihydro-1H-1,3-benzodiazol-1-yl}piperidine-1-carboxamide]: the IC50 at OGG1 is 0.766 µM. Moreover, the 50% effective concentration (EC50) in the assay with HT-29 was found to be 23 µM; in the assay with Hec59 + Chr2 it was 17 µM; in the assay on Hec59 it was 11 µM; in the assay on K562, 21 µM; with KG1a, 18 µM; with NB-4 it was 11 µM. The EC50 was determined as 25 µM in the assay with SW1271 and 19 µM in the assay on THP1.
Compound `O=C(Nc1ccc(I)cc1)N1CCC(n2c(=O)[nH]c3c(Br)cccc32)CC1` [Example 13, 4-(4-Bromo-2-oxo-2,3-dihydro-1H-1,3-benzodiazol-1-yl)-N-(4-iodophenyl)piperidine-1-carboxamide] yielded an IC50 against OGG1 of 0.359 µM. Besides, the EC50 in the assay with HT-29 was determined as 24 µM; with Hec59 + Chr2, 16 µM; in the assay with Hec59, 17 µM; with K562 it was 20 µM; in the assay with KG1a, 16 µM; in the assay on NB-4 it was 5 µM. The figures for the concentration for a half-maximal effect (EC50) with SW1271 and in the assay on THP1 were 22 µM and 23 µM, respectively. The colony formation entry with ACHN and with H460 was “inhibits colony formation” throughout. The “pro-inflammatory gene regulation induced by the cytokine TNFα” value with MLE-12 cells is listed as “reduces pro-inflammatory gene regulation”. Further, the “recruitment of neutrophils to mouse airways” value in the assay with BALB/c mice was “reduces recruitment of neutrophils”.
